These results are taken from patent US20240382497A1, “PROPHYLACTIC OR THERAPEUTIC AGENT FOR HYPOXIC INJURY, ISCHAEMIA-REPERFUSION INJURY AND INFLAMMATION, CELL PROTECTION AGENT FOR TRANSPLANTATION, AND BIO-PRESERVATION AGENT” (priority 2018, published 2024).

For one test, the system named is mice. As to the kind of experiment: Oxygen consumption after intraperitoneal injection. It counts as in vivo, mouse. The conditions noted are these: versus saline. On the procedure:
An influence of a thiazoline-related compound on the oxygen consumption was analyzed. The oxygen consumption was analyzed using an energy metabolism measurement device for small animals (ARCO-2000; ARCO SYSTEM). About 3-month-old C57/BL6N male mice were each placed in a measuring chamber and, after acclimation for about 2 hr, a thiazoline-related compound (2MT) was presented. The odors were presented by placing filter papers scented with 100 μl (104 mmol) of odor molecules in the measuring chamber. As a control, an experiment in which a filter paper dropped with saline was presented to the mice was also performed. The oxygen consumption was measured every one min. Mean oxygen consumption was calculated as the mean of 10 min before presenting odor and 20 min after presenting odor.
Changes in the oxygen consumption induced by intraperitoneal injection of heterocyclic compounds (2MT and Thiomorpholine (TMO) were measured by a method similar to that in Example 8.

For the next test, the system named is Male C57/BL6N mice. As to the kind of experiment: Skin blood flow on odor presentation (laser Doppler). It counts as in vivo, mouse. The conditions noted are these: filter paper scented with 271 μmol odor, 20 min, versus no odor. On the procedure: An influence of a thiazoline-related compound and an odor molecule that induces learned fear on the skin blood flow was analyzed. Male C57/BL6N mice (about 3 months old) were anesthetized with pentobarbital (50 mg/kg, i.p.) about 5 days before the test, and the back hair was depilated with depilatory cream. A mouse restrainer having an observation window was prepared using a 50 ml tube, the mice were trained to enter the restrainer from the day after hair removal, and acclimated by performing this operation until the day before the test. On the day of testing, each mouse was placed in a restrainer, and a laser Doppler probe was attached to the shaved back of the mouse with an adhesive tape. After confirming that the blood flow signal became stable, (1) no odor was presented for 10 min, (2) Eugenol odor was presented for 10 min, (3) thiazoline-related compound (2MT) or an odor that induces learned fear (Anis-FS+) was presented for 20 min, and changes in the blood flow were measured. […] The blood flow rate was measured every 10 seconds using a laser Doppler blood flow meter (ADVANCE CO., LTD. ALF21D). The mean skin blood flow without odor (10 min) or with the presentation of a thiazoline-related compound or an odor that induces learned fear (20 min) was calculated, and the mean skin blood flow was shown as a relative value with the mean skin blood flow without odor as 100%.

In test [1] the test system is C57/BL6N male mice. As to the kind of experiment: Respiratory rate on odor presentation (pulse oximeter). It counts as in vivo, mouse. The conditions noted are these: filter paper scented with 271 μmol odor, 20 min. On the procedure: An influence of a thiazoline-related compound and an odor molecule that induces learned fear on the respiratory rate was analyzed. The respiratory rate was analyzed using a pulse oximeter (Mouse Oxplus; STARR Life Science). A pulse oximeter was attached to the neck of C57/BL6N male mice (about 3-month-old) from about 1 week before the test and the mice were acclimated by repeating this operation. The mice were anesthetized with pentobarbital (50 mg/kg, i.p.) 2 days before the test, and the neck hair was depilated with depilatory cream. On the day of testing, an oximeter probe was attached to the shaven neck. After confirming that the signal became stable, the no odor baseline was measured for 10 min, changes in the respiratory rate when the thiazoline-related compound (2MT) or neutral odor (Eugenol; Eug) was presented was measured for 20 min (each n=6). The odors were presented by placing filter papers scented with 271 μmol of odor in the test cage. The oximeter signal was obtained at 1 Hz.

In test [2] the test system is C57/BL6N male mice. Nature of the test: Core body temperature under the odor conditions of Example 9. The conditions noted are these: odor presentation conditions of Example 9. It counts as in vivo, mouse. On the procedure:
An influence of a thiazoline-related compound and an odor molecule that induces learned fear on the core body temperature was analyzed. A radio-telemetry device for monitoring biological parameters (manufactured by Physiotel) was surgically implanted in the abdomen of male C57/BL6N mice (about 3 months old). The mice were subjected to the following experiment after about 10 days of recovery period. […] The information of body temperature was recorded every 10 sec using Dataquest A.R.T. software (DataScience international). The value of the core body temperature change was calculated as the difference between the mean core body temperature for 10 min when water was presented and the mean core body temperature for 20 min when each odor molecule was presented, and the change in the core body temperature without odor was set to 0. […]
About 3-month-old C57/BL6N male mice were each placed in a highly sealed breeding cage, and a filter paper scented with 100 μl (104 mmol) of the thiazoline-related compound (2MT) was placed in the breeding cage, and the odor was presented for 50 min. After the odor was presented, the mice were placed in a tight box in which the oxygen concentration was adjusted to 4%, and the survival time of the mice was measured up to 30 min at maximum. As a control, the survival time of mice presented with a filter paper dropped with water was also measured (no odor). […]

For the next test, the system named is Interleukin-10 (IL-10). Nature of the test: Blood IL-10 in LPS sepsis model (ELISA). To be noted: about 80 mg/kg i.p., 1 hr and 4 hr, versus saline. Format: in vivo, mouse. On the procedure: Lipopolysaccharide (LPS) (0.6 mg/kg) was intraperitoneally administered to male Balb/c mice (about 2-3 months old) to generate a sepsis model. Immediately after the LPS administration, 200 μl (about 80 mg/kg) of a solution prepared by diluting various heterocyclic compounds and isothiocyanate compounds 100 times with saline was intraperitoneally administered. Blood samples were collected 60 min after LPS and compound administration, EDTA plasma was prepared, and the blood level of inflammatory cytokine TNF-a was measured by the ELISA method.
A sepsis model mouse was prepared by the same method as in Example 18. Immediately after the LPS administration, 200 μl (about 80 mg/kg) of a thiazoline-related compound (2MT) solution prepared by diluting 100 times with saline was intraperitoneally administered. Blood samples were collected 1 hr and 4 hr after administration of LPS and thiazoline-related compound (2MT), EDTA plasma was prepared, and the blood levels of inflammatory cytokine Interleukin-1β (IL-1β), and anti-inflammatory cytokine Interleukin-10 (IL-10) were measured by the ELISA method.

Test [3] relates to Trpa1 knockout and littermate hetero mice. Nature of the test: Survival time in 4% oxygen of Trpa1 knockout mouse after odor presentation. Format: in vivo. The conditions noted are these: 271 μmol odor presented 10 min, versus saline. On the procedure:
The thiazoline-related compound (2MT) was presented for 10 min to about 3-month-old male Trpa1 knockout and littermate hetero mice. Thereafter, the mice were placed in a tight box in which the oxygen concentration was adjusted to 4%, and the survival time of the mice was measured up to 30 min at maximum. The odor was presented by placing a filter paper scented with 271 μmol of 2MT in the breeding cage. As a control, an experiment presenting a filter paper dropped with saline was also performed (no odor).

As to `CC1=NCCS1` [2MT, 2-methyl-2-thiazoline], the oxygen consumption result in the test on mice is “suppress the oxygen consumption”. Further, the skin blood flow entry in the test on Male C57/BL6N mice is “decreased the skin blood flow”. The respiratory rate entry in the test on C57/BL6N male mice [1] is recorded as “reduced the respiratory rate by about half”. For the same compound, the core body temperature entry in the test with C57/BL6N male mice [2] was “remarkable decrease in the core body temperature”. For the same compound, the “blood concentration of IL-10” value with Interleukin-10 (IL-10) is recorded as “increased the blood concentration of anti-inflammatory cytokine IL-10”. The “survival time in 4% oxygen” value in test [3] was “did not increase significantly”.
